Here are results for nine molecules from publication PMC5354766, “The expression of Nectin-4 on the surface of ovarian cancer cells alters their ability to adhere, migrate, aggregate, and proliferate” (Oncotarget, 2016).

Test [1] relates to NIH:OVCAR5 cells. Briefly: Spheroid formation after mitomycin C treatment. Format: cell-based, human. Particulars: 10 μg/ml mitomycin C for 3 h, spheroids after 24 h. The method, then: Spheroids were formed from the cell lines described above using the liquid overlay method. One milliliter of a single cell suspension was seeded at a concentration of 50,000 cells/ml in complete media, into 24-well tissue culture plates coated with 0.5% Seakem agarose (in complete media). Plates were incubated at 37°C in a humidified incubator with 5% CO2. At various time points up to 5 days, the plates were removed from the incubator and the spheroids were photographed with a Nikon CoolPix digital camera mounted on an Olympus CK2 inverted microscope with a 4X objective. The size of the spheroids was determined using the measure tool in Adobe Photoshop. The largest spheroids were quantified (20-90 spheroids/well) in a minimum of 8 wells, for a total of >300 spheroids per cell type.
(§1) Mitomycin C (Sigma-Aldrich, M287) was reconstituted at 0.4 mg/ml in PBS, pH 7.4, according to the supplier's instructions. Prior to spheroid assays, adherent NIH:OVCAR5 cells were pretreated for 3 hours at 37°C, in a tissue culture flask 10 μg/ml mitomycin C diluted in complete RPMI media. Flasks were rinsed with PBS and cells were detached as described for the spheroid assay. For migration assays, cells were plated in ibidi® wound-healing culture-insert incubated overnight, then the media was removed from the culture inserts and replaced with 25 μg/ml mitomycin C in complete RPMI. After 3 hours at 37°C, the culture inserts were removed and the cells were washed with PBS and cell migration was measured as described above.

The subject of test [2] is NIH:OVCAR5 cells. The test can be described thus: Wound healing (cell migration) assay after mitomycin C treatment. Format: cell-based, human. To be noted: 25 μg/ml mitomycin C for 3 h. The method, then:
Cells were diluted to a concentration of 700,000-10^6 cells/ml in complete media, and 70 μl was plated into each chamber (0.22 cm^2 growth area) of an ibidi® wound-healing culture-insert (ibidi® Verona, WI) in triplicate in a 100 × 20 mm dish (Corning, Falcon, Corning NY). Cells were grown overnight at 37°C in a humidified incubator with 5% CO2 or until the chambers were confluent, prior to removal of the culture insert. Migrating cells were incubated in OptiMEM® containing 10 μM lysophosphatidic acid (LPA Cayman Chemical, Ann Arbor, MI) and photographed initially (t = 0 h), and then up to 48 h with a 4X objective. Image analysis was performed using ImageJ software with the Scratch Assay Analyzer from the MiToBo plug in. Three independent experiments were performed on each cell line.
as §1

Test [3] has as its system NIH:OVCAR5-N4-over cells adhering to recombinant human Nectin-1 extracellular domain. Particulars: 1 h.
Test [4] shares this test system. Briefly: Peptide screen in the cell adhesion assay at 150 μg/ml. The format is cell-based. To be noted: peptide 0.15 mg/ml; 0.5 μg/well Nectin-1 (R&D Systems); relative to DMSO control; Figure 4A. On the procedure: Black, clear-bottom 96-well microtiter plates (Corning, Imported Costar, Corning, NY) were coated with various concentrations of recombinant human Nectin-1 extracellular domain (R&D Systems or Acrobiosystems, Newark, DE), recombinant human Nectin-4 extracellular domain (R&D Systems), or bovine serum albumin (BSA; Probumin Diagnostic Grade, MilliPore) diluted in PBS. Covered plates were incubated overnight at 37°C in a humidified incubator. After washing with PBS plus Ca^2+/Mg^2+ containing 2 mg/ml ovalbumin (Sigma-Aldrich), the plates were blocked for 1 h at 37°C with 1% BSA in PBS without Ca^2+/Mg^2+. Confluent monolayers of NIH:OVCAR5 cells or NIH:OVCAR5-N4-over cells were detached with Accutase, and then filtered through a 40 μm cell strainer (BD Biosciences, San Jose, CA) to remove cell aggregates. The single cells were stained with CellTracker Green CMFDA (5-chloromethylfluorescein diacetate; Invitrogen™) according to the manufacturer's protocol. After washing the plate, 30,000 cells were added to each well in 50 μl of RPMI 1640 media containing 2 mg/ml ovalbumin and allowed to adhere for 15-60 min at 37°C. Plates were vigorously washed four times and read in a BioTek Synergy fluorescent microplate reader (BioTek, Winooski, VA). Experiments were conducted in triplicate.
Microtiter plates coated with 0.5 μg/well recombinant human Nectin-1 extracellular domain (R&D Systems) as described above were pre-incubated for 30 min at room temperature with 150 μg/ml Nectin-4 peptides in PBS in triplicate. CMFDA-stained NIH:OVCAR5-N4-over cells were then added to the wells and cell adhesion was quantified after a 30 min incubation as described above. In parallel studies, CMFDA-stained NIH:OVCAR5-N4-over cells were pre-incubated for 30 min at room temperature with 150 μg/ml Nectin-1 peptides in PBS in triplicate, and then the cells and peptides were added to the 96-well plate followed by a 30 min incubation. […] Dose curves were conducted as described above, except the microtiter plates were coated with 0.25 μg/well recombinant human Nectin-1 extracellular domain (Acrobiosystems), and the peptides and scrambled controls were diluted from 0.01-200 μg/ml.

Where no end group is shown, it is not given here.

With `CO[C@@]12[C@H](COC(N)=O)C3=C(C(=O)C(C)=C(N)C3=O)N1C[C@@H]1N[C@@H]12` [mitomycin C], the “Spheroid size with vs without treatment” value in the test on NIH:OVCAR5 cells [1] (NIH:OVCAR5-N4-KD cells) is “essentially unchanged”; in the test on NIH:OVCAR5 cells [1] (NIH:OVCAR5-N4-over cells), “essentially unchanged”; in the test with NIH:OVCAR5 cells [1] (NIH:OVCAR5 control cells), “somewhat smaller”. In addition, the “Effect on migration in wound healing assay” value with NIH:OVCAR5 cells [2] (NIH:OVCAR5 cells that over-express Nectin-4, 24 h) was “almost completely inhibited migration”. For the same molecule, the “Exposed wound area covered by migrating cells in 24 h” value in the test with NIH:OVCAR5 cells [2] (NIH:OVCAR5 control cells, untreated cells completely closed the wound) was determined as 50%. The “Migration (wound area covered) in 24 h” value in the test on NIH:OVCAR5 cells [2] (Nectin-4 knock-down cells N4-KD-VB3, untreated cells 25%) was 16%.
ACIVNYHMDRFKES-NH2 [N1-P17]: the “IC50 (mg/ml), inhibition of binding of OVCAR5-N4-over cells to recombinant Nectin-1” value in test [3] was 0.006 mg/mL.
Consider “CLSEGQPPPSYNWT [N4-P21, Synthetic peptide from Nectin-4 extracellular domain, IgC2]”, for which the “Promotion of cell adhesion” value in test [4] is on record as roughly 1.5 fold.
Still for that read-out and setting: for “LWHIGREGAMLKCL [N4-P20, Synthetic peptide from Nectin-4 extracellular domain, IgC2]” the value was roughly 1.5 fold.
Consider NWYLQRMDVKLTCK-NH2 [N1-P20], for which the “IC50 (mg/ml), inhibition of binding of OVCAR5-N4-over cells to recombinant Nectin-1” value in test [3] came to 0.018 mg/mL.
On the same count and under the same terms, with QRITHILHVSFLAE-NH2 [N4-P18] the figure was 0.041 mg/mL.
“RVDGDTLGFPPLTT [N4-P23, Synthetic peptide from Nectin-4 extracellular domain, IgC2]”: in test [4], the “Promotion of cell adhesion” value is given as roughly 1.5 fold.
Still for that read-out and setting: for “TTEHSGIYVCHVSN [N4-P24, Synthetic peptide from Nectin-4 extracellular domain, IgC2]” the value was roughly 1.5 fold.
Regarding WTRLDGPLPSGVRV-NH2 [N4-P22], the “IC50 (mg/ml), inhibition of binding of OVCAR5-N4-over cells to recombinant Nectin-1” value in test [3] was 0.028 mg/mL.
